In assay [1] the test system is A549 lung carcinoma cells. The experiment in a line: A549 assay, PGE2 content in supernatant by EIA. The class given is cell-based. As to conditions: TNFalfa and IL-1beta induced 16 h, 30 min compound, then 10 μM arachidonic acid 30 min. Here is the method:
A549 lung carcinoma cells, seeded at a density of 10,000 cells/well, were grown in 96 well tissue culture plates. TNFalfa (5 ng/ml) and […] (5 ng/ml) were added and the cells were incubated for 16 hours. Cells were washed in PBS and test compounds at the appropriate concentration in HBSS/0.1% BSA were added. After 30 minutes incubation with test compounds, 10 μM arachidonic acid was added and cells were further incubated for 30 minutes. Supernatant was collected and analyzed for PGE2 content by EIA according to manufacturer's instructions.

Assay [2] addresses T1, recombinant, membrane-bound mPGES-1 (Homo sapiens, UniProt O14684).
T1 sequence (O14684 1-152): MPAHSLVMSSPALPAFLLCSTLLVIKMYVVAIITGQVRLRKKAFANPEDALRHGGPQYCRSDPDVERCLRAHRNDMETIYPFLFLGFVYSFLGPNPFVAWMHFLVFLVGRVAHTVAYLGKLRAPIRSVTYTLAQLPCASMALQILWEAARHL
Put plainly: Thiobarbituric acid assay (TBA-MDA assay), inhibition of mPGES-1. As to conditions: remaining PGH2 measured at 535 nm. The class given is biochemical. From the text:
Malondialdehyde is a product of lipid peroxidation and reacts with thiobarbituric acid forming a red product that absorbs at 535 nm (W. G. Niehaus, Jr and B. Samuelsson, Eur. J. Biochem 6, 126 (1968). The extinction coefficient of the TBA-MDA conjugate is 1.56×10^5 M^−1 cm^−1 (E. D. Wills. Biochem. J. 113, 315 (1969).
The method used for detection of inhibition of mPGES-1 is based on the detection of the amount of remaining PGH2. This method was described more than 20 years ago by Basevich et al (Bioorg. Khim. 1983, 9(5), 658-665.
The assay used was a modified variant and used citric acid instead of the TCA-TBA-HCl reagent described in the original assay. In this assay recombinant, membrane-bound mPGES-1 was incubated with PGH2. The reaction was stopped by adding citric acid with a final pH of 3 and a large excess of FeCl2 (20 mM) to convert any remaining PGH2 into MDA and […]. TBA reagent was finally added (0.67%) and the samples were heated at 80° C. for 30 min. The absorbance of the conjugate was measured at 535 nm.
The product of mPGES-1 (PGE2) was not measured directly in this assay, but rather the remaining substrate (PGH2) indirectly by adding FeCl2 that converts PGH2 into […] and 12-HHT. As a positive control a known mPGES-1 inhibitor, MK-886, was used and the new inhibitors were compared with the inhibition of MK-886 (% of MK-886 inhibition).

A word on the EC50: it is the concentration at which the effect is half-maximal. Low readings indicate greater potency, high ones weaker potency. The IC50 is the concentration that gives 50% inhibition.

In assay [1] (Homo sapiens, A549), `O=C(Nc1ccc(C(F)(F)F)cn1)c1cccc(NC(=O)c2ccccc2C(F)(F)F)c1` [Compound 153, 3-[2-(Trifluoromethyl)-benzoylamino]-N-(5-trifluoromethyl-pyridine-2-yl)-benzamide] had an EC50 of 500 nM. Also, in assay [2], the concentration for half-maximal inhibition (IC50) amounted to 49 nM.

In assay [1] (Homo sapiens, A549), `O=C(NCc1cccc2ccccc12)c1cccc(NC(=O)c2ccccc2Cl)c1` [Compound 117, 2-Chloro-N-{3-[(naphthalen-1-ylmethyl)-carbamoyl]-phenyl}-benzamide] had a concentration for a half-maximal effect (EC50) of 1480 nM. For the same compound, in assay [2], the IC50 came to 260 nM.

Turning to `O=C(NC1CCc2ccccc21)c1cccc(NC(=O)c2ccccc2Cl)c1` (stereo not drawn) [Compound 34, 3-(2-Chloro-benzoylamino)-N-indan-1-yl-benzamide], the concentration giving a half-maximal response (EC50) in assay [1] (Homo sapiens, A549) stood at 5400 nM. Also, the IC50 in assay [2] came to 720 nM.

`O=C(NCc1cccc2ccccc12)c1cccc(NC(=O)c2ccccc2F)c1` [Compound 104, 2-Fluoro-N-{3-[(naphthalen-1-ylmethyl)-carbamoyl]-phenyl}-benzamide] displayed an EC50 in assay [1] (Homo sapiens, A549) of 640 nM. Moreover, the concentration for half-maximal inhibition (IC50) in assay [2] came to 1100 nM.

In turn, `C[C@H](NC(=O)c1cccc(NC(=O)c2ccccc2C(F)(F)F)c1)c1cccc2ccccc12` [Compound 77, N-[3-((S)-1-Naphthalen-1-yl-ethylcarbamoyl)-phenyl]-2-trifluoromethyl-benzamide] displayed a concentration giving a half-maximal response (EC50) in assay [1] (Homo sapiens, A549) of 400 nM. In addition, the half-inhibitory concentration (IC50) in assay [2] turned out to be 290 nM.

In assay [1], `O=C(Nc1cccc2cccnc12)c1cccc(NC(=O)c2ccccc2Cl)c1` [Compound 8, 3-(2-Chloro-benzoylamino)-N-(quinolin-8-yl-)-benzamide] returned a half-maximal effective concentration (EC50) of 2960 nM. For the same compound, the half-inhibitory concentration (IC50) in assay [2] amounted to 800 nM.

Turning to `C[C@H](NC(=O)c1cccc(NC(=O)c2ccccc2I)c1)c1cccc2ccccc12` [Compound 79, 2-Iodo-N-[3-((S)-1-naphthalen-1-yl-ethylcarbamoyl)-phenyl]-benzamide], the EC50 in assay [1] (Homo sapiens, A549) worked out at 1230 nM. In addition, in assay [2], the concentration for half-maximal inhibition (IC50) worked out at 200 nM.

On to `COc1cccc(OC)c1C(=O)Nc1cccc(C(=O)N[C@H](C)c2cccc3ccccc23)c1` [Compound 92, 2,6-Dimethoxy-N-[3-((R)-1-naphthalen-1-yl-ethylcarbamoyl)-phenyl]-benzamide], for which the half-inhibitory concentration (IC50) in assay [2] came to 1300 nM.

Turning to `O=C(Nc1ccc2ccccc2n1)c1cccc(NC(=O)c2ccccc2C(F)(F)F)c1` [Compound 43, 3-(2-Trifluoromethyl-benzoylamino)-N-quinolin-2-yl-benzamide], the half-maximal inhibitory concentration (IC50) in assay [2] was 190 nM.

Turning to `C[C@@H](NC(=O)c1cccc(NC(=O)c2ccccc2C(F)(F)F)c1)c1cccc2ccccc12` [Compound 93, N-[3-((R)-1-Naphthalen-1-yl-ethylcarbamoyl)-phenyl]-2-trifluoromethyl-benzamide], in assay [1] (Homo sapiens, A549), the EC50 was determined as 450 nM. For the same compound, the half-maximal inhibitory concentration (IC50) in assay [2] turned out to be 120 nM.

(Values after patent US20100324086A1, “COMPOUNDS AND METHODS” (Novasaid AB, priority 2008, published 2010).)
